Test results from PMC3585395, “Material Basis of Chinese Herbal Formulas Explored by Combining Pharmacokinetics with Network Pharmacology” (PLoS ONE, 2013).
Read-outs that look alike come from different tables or passages of the source.

Assay: in vivo
Type: in vivo, Sprague–Dawley rats
Conditions: for Detection in rat plasma after D7 administration: LC-MS/MS, sampling up to 24 h; for half-life / AUC / Cmax / MRT / Tmax / AUC(0-t) / CL/F / Vd/F: male, Sprague-Dawley, rat, in vivo; for Vd/F: read-out: Vz/F
Method: Male Sprague–Dawley rats (∼250 g) purchased from Sino-British Sippr/BK Lab Animal, Ltd. (Shanghai, China) were housed in air-conditioned animal quarters with alternating 12 h light/dark cycles at a room temperature of 22°C±2°C and a relative humidity of 50%±10%. Commercial rat chow and water were given ad libitum. The animal studies were approved by the Review Committee of Animal Care and Use at Longhua Hospital. The rats were fasted overnight (∼12 h) and had free access to water throughout the experimental period. Five rats were given a single oral dose of D7 at 4 mL/kg, which was designed based on the clinical dosage for human. Blood samples (∼150 µL) were collected via a jugular vein catheter from non-restrained, non-sedated animals into heparinized tubes before and at 0.083, 0.25, 0.5, 1, 2, 3, 4, 6, 8, 10, and 24 h after administration. After centrifugation at 4000×g for 10 min at 4°C, duplicates of 25 µL of the plasma samples were obtained and were immediately stored at −80°C until analysis. After the experiments, the rats were sacrificed with ether anesthesia.
For protein precipitation, 75 µL of MeOH were added to 25 µL of plasma samples. After vortexing for 2 min and centrifugation for 5 min at 13000×g at 4°C, 80 µL aliquots of the supernatant liquid were transferred into autosampler vials for LC-MS/MS analysis.
The LC-MS/MS system consisted of an Agilent HPLC 1200 series system and a CTC autosampler coupled with an API 4000 triple-quadrupole mass spectrometer equipped with a TurboIonSpray ion source. The LC-MS/MS system was controlled using the Analyst 1.4.2 software, which also acquired and processed the data.
LC separation was performed on a 5 µm Agel Luna C18 (50 mm×2.1 mm, i.d.) at room temperature with a 2 µm filter used before the analytical column. The LC mobile phase was H2O containing 0.1% formic acid (A) and MeOH (B) at a flow rate of 0.30 mL/min. A gradient elution program was used as following: 0→2.5 min, B% 60→90; 2.5→2.6 min, B% 90→60; and 2.6→4 min, B% 60→60. The injection volume was 10 µL and the temperature of the autosampler was set at 4°C to keep the samples stable during the analysis.
The tuning solutions (10 µg/mL) of the individual analytes were prepared by diluting the corresponding primary stock solutions with 50% MeOH. The tuning solutions were delivered at 5.0 µL/min using a syringe pump and combined through a PEEK tee-connector with the mobile phase delivered at 0.3 mL/min with the LC pump. The instrumental parameters of the MS spectrometers in positive ion ESI mode were optimized to achieve maximum ionization of the analyte molecules and the generation of characteristic fragment ions. […] The scan time for each pair was set to 50 ms. The operating parameters of the mass spectrometer included compound-dependent and source-dependent considerations. The optimized source-dependent parameters consisted of the flow rates of curtain gas, gas 1, gas 2, collision gas (CAD), capillary temperature (TEM), and ion spray voltage. The compound-dependent parameters for the test compounds included the declustering potential (DP), entrance potential (EP), collision energy (CE), and collision cell exit potential (CXP).
Standard curves, intra-batch accuracy, and precision for the quantification of the 15 compounds in the rat plasma samples were constructed similarly. The accuracy was measured as the difference between the nominal value and the measured value, expressed as a percentage of the nominal value. Precision was expressed as the coefficient of variation (CV), i.e., the standard deviation divided by the mean multiplied by 100.
The plasma concentration–time data for D7 were analyzed with the WinNonlin 5.2.1 software (Pharsight, Mountain View, CA, USA) using a non-compartmental model. The peak plasma concentration (C max) and the corresponding time (T max) were directly obtained from the concentration data.

[1] = SD rats, single oral D7 4 mL/kg
[2] = SD rats, single oral D7 4 mL/kg, plasma
[3] = SD rats, single oral D7 4 mL/kg, read-out: CL/F (converted)
[4] = SD rats, single oral D7 4 mL/kg, plasma, non-compartmental, read-out: T1/2 (converted)
[5] = SD rats, single oral D7 4 mL/kg, plasma, read-out: AUC0–24 h

## CC(C)=CCc1cc2c(cc1O)oc(=O)c1c3ccc(O)cc3oc21 [Psoralidin, psoralidin]
[1]
  Detection in rat plasma after D7 administration: measureable
  Vd/F: 5.87 ± 0.395 L/kg
[2]
  AUMCall: 2240±462 h·h·ng/mL
  AUMClast: 329±44 h·h·ng/mL
  AUC: 64.5 ± 8.46 ng·h/mL
  Cmax: 2.57 ± 0.53 ng/mL
  MRT: 10.3 ± 0.39 h
  Tmax: 0.5 h
SD rats, single oral D7 4 mL/kg, plasma, non-compartmental
  T1/2: 23.7 ± 1.7 h
po, SD rats, single oral D7 4 mL/kg, plasma, non-compartmental, read-out: T1/2 (converted)
  half-life: ~24 h
SD rats, single oral D7 4 mL/kg, plasma, read-out: AUClast
  AUC(0-t): 31.9 ± 3.32 ng·h/mL
[3]
  CL/F: 2.88 mL/min/kg

## COc1c2ccoc2cc2oc(=O)ccc12 [Bergapten, bergapten]
[1]
  Detection in rat plasma after D7 administration: measureable
  Vd/F: 2.93 ± 1.57 L/kg
[2]
  AUMCall: 1270±958 h·h·ng/mL
  AUMClast: 924±716 h·h·ng/mL
  AUC: 158 ± 77.9 ng·h/mL
  Cmax: 20.5 ± 7.22 ng/mL
  MRT: 5.65 ± 2.16 h
  Tmax: 1 h
[4]
  half-life: 4.14 ± 0.7 h
[5]
  AUC(0-t): 143 ± 73.2 ng·h/mL
[3]
  CL/F: 8.07 mL/min/kg

## COCC12CN(C)C3C4C(OC)C1C3(C(OC)CC2O)C1CC2(O)C(OC)C(O)C4(OC(C)=O)C1C2OC(=O)c1ccccc1 (stereo not shown) [mesaconitine]
[1]
  Detection in rat plasma after D7 administration: not detected

## COC[C@@]12CC[C@H](OC)[C@]34C(C([C@H](OC)[C@H]13)[C@]1(OC(C)=O)[C@H]3[C@@H](OC(=O)c5ccccc5)[C@](O)(C[C@H]34)[C@@H](OC)[C@@H]1O)N(C)C2 [hypaconitine]
[1]
  Detection in rat plasma after D7 administration: not detected

## COc1c2occc2cc2ccc(=O)oc12 [Xanthotoxin, xanthotoxin]
[2]
  AUMCall: 1445±719 h·h·ng/mL
  AUMClast: 667±270 h·h·ng/mL
  AUC: 209 ± 89.5 ng·h/mL
  Cmax: 31.7 ± 9.55 ng/mL
  MRT: 4.06 ± 0.41 h
  Tmax: 1 h
po
  CL/F: 9.6 mL/min/kg
po, T1/2
  half-life: 4.56 ± 0.71 h
[5]
  AUC(0-t): 162 ± 64.7 ng·h/mL
[1]
  Vd/F: 3.69 ± 1.52 L/kg

## O=c1ccc2cc3ccoc3cc2o1 [Psoralen, psoralen]
[2]
  AUMCall: 74305±51503 h·h·ng/mL
  AUMClast: 69918±49475 h·h·ng/mL
  AUC: 10200 ± 6000 ng·h/mL
  Cmax: 929 ± 431 ng/mL
  MRT: 6.71 ± 0.79 h
  Tmax: 6 h
[4]
  half-life: 3.18 ± 0.24 h
[5]
  AUC(0-t): 9980 ± 5960 ng·h/mL
[3]
  CL/F: 1.39 mL/min/kg
[1]
  Vd/F: 0.384 ± 0.227 L/kg

## O=c1ccc2ccc3occc3c2o1 [Isopsoralen, isopsoralen]
[1]
  Detection in rat plasma after D7 administration: measureable
  Vd/F: 0.308 ± 0.181 L/kg
[2]
  AUMCall: 168803±119110 h·h·ng/mL
  AUMClast: 150025±99963 h·h·ng/mL
  AUC: 21000 ± 12100 ng·h/mL
  Cmax: 2240 ± 824 ng/mL
  MRT: 7.13 ± 0.66 h
  Tmax: 6 h
[4]
  half-life: 3.53 ± 1.03 h
[5]
  AUC(0-t): 20400 ± 11500 ng·h/mL
[3]
  CL/F: 1.1 mL/min/kg

## CCN1CC2(COC)C(O)CC(OC)C34C5CC6(O)C(OC)C(O)C(O)(C5C6OC(=O)c5ccccc5)C(C(OC)C23)C14 (stereo not shown) [Benzoylaconitine, benzoylaconine]
[1]
  Detection in rat plasma after D7 administration: not detected

## CCN1C[C@]2(COC)[C@H](O)C[C@H](OC)[C@@]34[C@@H]5C[C@@]6(O)[C@H](OC(=O)c7ccccc7)[C@@H]5[C@@](OC(C)=O)([C@@H]([C@H](OC)[C@H]23)[C@@H]14)[C@@H](O)[C@@H]6OC [aconitine]
[1]
  Detection in rat plasma after D7 administration: not detected
